Columns and labels:
Assay in all cases: Bliss excess, mean over the matrix (fraction); higher = more synergy
[1] = system: KYSE-70 (Esophageal Squamous Cell Carcinoma)
Summary of the method: (§1)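 Cell lines grown in DMEM/F12 or RPMI with 10% FBS were plated in 1536-well plates and held 24 hours at 37°C, 5% CO2 before 72 hours of exposure to two-drug dose matrices, with DMSO typically at 0.2%. CellTiter-Glo 2.0 luminescence gave viability, which was converted to inhibition. Vehicle wells were set to 0 and blank wells to 1. Combination Emax is the second-highest inhibition in the matrix, and Bliss excess is the observed combination effect minus the expected EA + EB − EA·EB, where EA and EB are the single-agent effects.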

[2] = system: BALL-1 (B-Lymphoblastic Leukemia)
Summary of the method: as §1

[3] = system: LOUCY (T-Lymphoblastic Leukemia)
Summary of the method: as §1

[4] = system: NCI-H1623 (Lung Adenocarcinoma)
Summary of the method: as §1

[5] = system: HSC-3 (Oral Cavity Carcinoma)
Summary of the method: as §1

[6] = system: PC-14 (Lung Adenocarcinoma)
Summary of the method: as §1

[7] = system: Becker (Low Grade Glioma)
Summary of the method: as §1

[8] = system: NCI-H1755 (Lung Adenocarcinoma)
Summary of the method: as §1

[9] = system: NCI-H1155 (Non-Small Cell Lung Carcinoma)
Summary of the method: as §1

[10] = system: RERF-LC-KJ (Lung Adenocarcinoma)
Summary of the method: as §1

[11] = system: AsPC-1 (Pancreatic Carcinoma)
Summary of the method: as §1

[12] = system: FLO-1 (Esophageal Adenocarcinoma)
Summary of the method: as §1

[13] = system: RPMI-8866 (Chronic Myelogenous Leukemia)
Summary of the method: as §1

[14] = system: NCI-H1563 (Lung Adenocarcinoma)
Summary of the method: as §1

[15] = system: NCI-H810 (Non-Small Cell Lung Carcinoma)
Summary of the method: as §1

[16] = system: RT4 (Bladder Carcinoma)
Summary of the method: as §1

[17] = system: LAMA-84 (Chronic Myelogenous Leukemia)
Summary of the method: as §1

[18] = system: SK-MM-2 (Plasma Cell Myeloma)
Summary of the method: as §1

[19] = system: 786-0 (Kidney Carcinoma)
Summary of the method: as §1

[20] = system: HuO-3N1 (Osteosarcoma)
Summary of the method: as §1

Structure (SMILES)	Bliss excess [1]	Bliss excess [2]	Bliss excess [3]	Bliss excess [4]	Bliss excess [5]	Bliss excess [6]	Bliss excess [7]	Bliss excess [8]	Bliss excess [9]	Bliss excess [10]	Bliss excess [11]	Bliss excess [12]	Bliss excess [13]	Bliss excess [14]	Bliss excess [15]	Bliss excess [16]	Bliss excess [17]	Bliss excess [18]	Bliss excess [19]	Bliss excess [20]
Cc1cc2ncnn2cc1Nc1ncc2c(n1)n(C1CCOCC1)c(=O)n2C [AZD7648] + O=C(c1cc(Cc2n[nH]c(=O)c3ccccc23)ccc1F)N1CCN(C(=O)C2CC2)CC1 [Olaparib] (first compound max 10 µM, 7x7, partner max 10 µM)	-0.0528	0.0624	-0.0388	-0.0486	-0.0102	-0.0245	-0.0281	-0.0464	-0.0235	-0.0546	-0.0567	-0.0259	0.0298	-0.0487	-0.0482	0.0016	-0.0044	-0.0204	-0.0162	-0.031
NC1(C(=O)N[C@@H](CCO)c2ccc(Cl)cc2)CCN(c2ncnc3[nH]ccc23)CC1 [Capivasertib] + CC(=O)c1c(C)c2cnc(Nc3ccc(N4CCNCC4)cn3)nc2n(C2CCCC2)c1=O [Palbociclib] (first compound max 10 µM, 7x7, partner max 10 µM)	0.0188	0.0245	0.0824	-0.0156	-0.0076	0.0388	0.0816	0.0036	-0.0084	0.0307	-0.025	-0.0218	0.0215	-0.0456	-0.0346	0.0114	0.0059	-0.0005	0.0245	-0.105
NC1(C(=O)N[C@@H](CCO)c2ccc(Cl)cc2)CCN(c2ncnc3[nH]ccc23)CC1 [Capivasertib] + CC(C)n1c(=O)n(C)c2cnc3cc(F)c(-c4ccc(OCCCN5CCCCC5)nc4)cc3c21 [AZD1390] (first compound max 10 µM, 7x7, partner max 0.3 µM)	-0.063	-0.0292	-0.0101	-0.024	-0.0746	-0.0168	-0.0136	-0.0407	-0.031	-0.0017	-0.0512	-0.0398	0.0503	0.0016	-0.0543	-0.0651	-0.0119	-0.115	-0.0997	-0.101
NC1(C(=O)N[C@@H](CCO)c2ccc(Cl)cc2)CCN(c2ncnc3[nH]ccc23)CC1 [Capivasertib] + CCN(CCO)CCCOc1ccc2c(Nc3cc(CC(=O)Nc4cccc(F)c4)[nH]n3)ncnc2c1 [AZD2811] (first compound max 10 µM, 7x7, partner max 1 µM)	-0.0902	0.0356	-0.104	0.0004	-0.0374	0.028	-0.0136	-0.0289	-0.0152	-0.0135	-0.0655	-0.0049	0.0469	0.0242	-0.0195	-0.0039	0.0341	-0.0412	-0.0352	-0.0379
NC1(C(=O)N[C@@H](CCO)c2ccc(Cl)cc2)CCN(c2ncnc3[nH]ccc23)CC1 [Capivasertib] + COc1nnc2ccc(N3CCC(c4ccc(OCCN5CCN(C)C(=O)[C@H]5C)cc4)CC3)nn12 [AZD5153] (first compound max 10 µM, 7x7, partner max 1 µM)	-0.0109	-0.0339	0.0912	0.0638	0.0078	0.0461	0.0414	-0.0278	0.0992	-0.0437	-0.0273	0.0115	-0.0511	-0.0218	0.0078	-0.0021	-0.0038	-0.107	0.0014	0.0531
NC1(C(=O)N[C@@H](CCO)c2ccc(Cl)cc2)CCN(c2ncnc3[nH]ccc23)CC1 [Capivasertib] + C[C@@H]1COCCN1C2=NC(=NC(=C2)C3(CC3)[S@](=N)(=O)C)C4=C5C=CNC5=NC=C4 [AZD6738] (first compound max 10 µM, 7x7, partner max 10 µM)	-0.0691	-0.0066	-0.0482	-0.0522	-0.0346	-0.0355	-0.0135	-0.0244	-0.0362	-0.0722	-0.0359	-0.0933	-0.0323	-0.0357	-0.0575	-0.022	0.0117	-0.0164	-0.0708	-0.11
NC1(C(=O)N[C@@H](CCO)c2ccc(Cl)cc2)CCN(c2ncnc3[nH]ccc23)CC1 [Capivasertib] + Cn1cnc2c(F)c(Nc3ccc(Br)cc3Cl)c(C(=O)NOCCO)cc21 [Selumetinib] (first compound max 10 µM, 7x7, partner max 10 µM)	-0.0073	0.0317	0.0806	0.0623	0.0081	0.0938	0.0788	0.0295	0.0293	0.0517	-0.039	0.0307	0.0602	-0.119	-0.014	-0.0196	0.0548	-0.0293	0.0614	-0.0321

From the supplement of paper PMC11061612
